Reference: US20010010818A1, “Methods and formulations for reducing circulating antibodies” (priority 1998, published 2001)

Tests used:
anti-αGal Ig [1] = assay: Removal of anti-αGal Ig from serum by αGal epitope on resin (Sepharose), measured by FACS; assay type: binding, rhesus monkey; conditions: epitope on resin (coupled to Sepharose)
Procedure: (§1) Antibodies. Blood was drawn from healthy normal volunteers. Plasma was separated by centrifugation and allowed to clot. Fibrin was removed and plasma was used immediately or stored in aliquots at −70° C. Rhesus monkey serum (California Regional Primate Research Center, Davis, Calif.) was obtained from blood drawn into vacutainer tubes and allowed to clot. After serum was separated by centrifugation, it was pooled, aliquoted and stored at −20° C. or −70° C. In some experiments, sera was heat-inactivated at 56° C. for 30 minutes to destroy complement hemolytic activity. Antibodies to the αGal epitope were affinity purified on an αGal-Sepharose column, which was prepared by coupling αGal-SH to maleimide-Sepharose (Pierce) through Michael addition chemistry at 10 mg/mL resin. Up to 20 mL pooled NHS […] was applied to a 2 mL volume of packed αGal-Sepharose. After the flow through was collected, the column was washed with 10-20 column volumes or until A280 reached baseline values and eluted with 0.1 M triethanolamine, pH 11.5 into tubes containing 1 M Tris, pH 8.0. The column was immediately washed with 10-20 volumes of phosphate-buffered saline (PBS). Fractions were assessed for protein concentration by Bradford assay. Peak fractions were pooled and dialyzed against PBS. […]

anti-αGal Ig [2] = assay: as above; assay type: binding, human; conditions: epitope on resin (coupled to Sepharose)
Procedure: as §1

## OC[C@H]1O[C@H](O[C@H]2[C@@H](O)[C@@H](CO)O[C@@H](OCCOCCOCCS)[C@@H]2O)[C@H](O)[C@@H](O)[C@H]1O [αGal epitope, 2-[2-(2-thioethoxy)ethoxy]ethyl 3-O-(α-D-galactopyranosyl)-β-D-galactopyranoside]
anti-αGal Ig [1]
  removal of anti-αGal Ig from normal rhesus monkey serum: > 95%
anti-αGal Ig [2]
  removal of anti-αGal Ig from human serum: > 95%
